Laboratory results taken from US7205004B2, “Herbal composition for treatment of neuronal injuries and neuronal degeneration, methods to prepare the same and uses thereof” (priority 2000, dated 2007).

Tests used:
Assay type in all cases: in vivo
mice [1] = test: Effects on antibody production in mice (sheep erythrocyte immunization); conditions: mice n = 15, immunized with 10% sheep erythrocytes day 2, measured day 8; Bu-Nao-Gao 4 g/Kg orally, hydrocortisone 50 mg/Kg i.m., 7 days
Protocol: Mice were randomly distributed, and were given Bu-Nao-Gao (4 g/Kg) orally, or hydrocortison (50 mg/Kg) or saline intramuscularly, for seven days. On day 2, they were immunized with 10% sheep erythrocytes intra-peritoneally. On day 8, erythrocyte agglutination as well as cell lysis were measured respectively.

mice [2] = test: Effects on the weight of immune organs; conditions: mice n = 15, 7 days; Bu-Nao-Gao 4 g/Kg orally, hydrocortisone 50 mg/Kg intramuscularly
Protocol: Mice were randomly distributed, and were given Bu-Nao-Gao (4 g/Kg) orally, or hydrocortison (50 mg/Kg) or saline intramuscularly, for seven days. 24 hours after the last administration, mice were sacrificed.

mice [3] = conditions: mice n = 15; Bu-Nao-Gao oral 4 g/Kg daily, cyclophosphomide 0.03 g/kg i.m. every other day
Protocol: Mice were given Bu-Nao-Gao (oral at 4 g/Kg daily), or cyclophosphomide (0.03 g/kg, intramuscularly every other day) or saline (oral, daily). On day 3, mice were given 0.02 ml of 7% DNCB subcutaneously on the back, and were boosted three days later in the same way. 9 days later, 0.02 ml of 1% DNCB was applied to the left ear. This area was removed by a ear puncher of 9 mm diameter and the extent of ear swelling represents the extent of delayed-type hypersensitivity (for results, see Table 6).

SMILES | Agglutinin (33) (HC50) (mice [1]) | Erythorcytolysin (32) (mice [1]) | Index of immune organ (mg/g X +/− SD), Spleen (mice [2]) [mg/g] | Index of immune organ (mg/g X +/− SD), thymus (mice [2]) [mg/g] | DNCB (extent of swolleness) (mice [3])
C[C@]12CCC(=O)C=C1CC[C@@H]1[C@@H]2[C@@H](O)C[C@@]2(C)[C@H]1CC[C@]2(O)C(=O)CO [Hydrocortisone] | 126.7 +/− 19.3 | 37.5 +/− 4.2 | 2.66 ± 0.40 | 1.37 ± 0.26 | 
O=P1(N(CCCl)CCCl)NCCCO1 (centres unmarked) [cyclo-phosphamidum, cyclophosphomide] |  |  |  |  | 12.26 +/− 8.8
